Here are results for 25 molecules from US12226418B2, “Dosing regimen for the treatment of PI3K related disorders” (Incyte Corporation, priority 2018, dated 2025).

Common to all, as to format: biochemical
In experiment [1] the target is PI3Kδ (p110δ/p85α) (Homo sapiens (Human), UniProt O00329). The experiment in a line: PI3Kδ scintillation proximity assay. The following applies: 20 μM ATP; read-out: PI3Kδ SPA IC50. The source says: [γ-^33P]ATP (10 mCi/mL) was purchased from Perkin-Elmer (Waltham, MA). Lipid kinase substrate, D-myo-Phosphatidylinositol 4,5-bisphosphate (PtdIns(4,5)P2)D (+)-sn-1,2-di-O-octanoylglyceryl, 3-O-phospho linked (PIP2), CAS 204858-53-7, was purchased from Echelon Biosciences (Salt Lake City, UT). PI3Kδ (p110δ/p85α) was purchased from Millipore (Bedford, MA). ATP, MgCl2, DTT, EDTA, MOPS and CHAPS were purchased from Sigma-Aldrich (St. Louis, MO). Wheat Germ Agglutinin (WGA) YSi SPA Scintillation Beads was purchased from GE healthcare life sciences (Piscataway, NJ).
The kinase reaction was conducted in polystyrene 384-well matrix white plate from Thermo Fisher Scientific in a final volume of 25 μL. Inhibitors were first diluted serially in DMSO and added to the plate wells before the addition of other reaction components. The final concentration of DMSO in the assay was 0.5%. The PI3K assays were carried out at room temperature in 20 mM MOPS, pH 6.7, 10 mM MgCl2, 5 mM DTT and CHAPS 0.03%. Reactions were initiated by the addition of ATP, the final reaction mixture consisted of 20 μM PIP2, 20 μM ATP, 0.2 μCi [γ-^33P]ATP, 4 nM PI3Kδ. Reactions were incubated for 210 min and terminated by the addition of 40 μL SPA beads suspended in quench buffer: 150 mM potassium phosphate pH 8.0, 20% glycerol. 25 mM EDTA, 400 μM ATP. The final concentration of SPA beads was 1.0 mg/mL. After the plate sealing, plates were shaken overnight at room temperature and centrifuged at 1800 rpm for 10 minutes, the radioactivity of the product was determined by scintillation counting on Topcount (Perkin-Elmer). IC50 determination was performed by fitting the curve of percent control activity versus the log of the inhibitor concentration using the GraphPad Prism 3.0 software. IC50 data for the Examples is presented in Table B as determined by Assay A.

Experiment [2] deals with JAK2 (Homo sapiens (Human), UniProt O60674). The experiment in a line: JAK2/JAK1 selectivity, Assay A at 1 mM ATP. The note with it: IC50 ratio.
In experiment [3] the target is JAK1 (Homo sapiens (Human), UniProt P23458). The experiment in a line: JAK1 IC50, Assay A of U.S. Ser. No. 14/680,659 at 1 mM ATP.
JAK1, sequence (P23458 837-1142): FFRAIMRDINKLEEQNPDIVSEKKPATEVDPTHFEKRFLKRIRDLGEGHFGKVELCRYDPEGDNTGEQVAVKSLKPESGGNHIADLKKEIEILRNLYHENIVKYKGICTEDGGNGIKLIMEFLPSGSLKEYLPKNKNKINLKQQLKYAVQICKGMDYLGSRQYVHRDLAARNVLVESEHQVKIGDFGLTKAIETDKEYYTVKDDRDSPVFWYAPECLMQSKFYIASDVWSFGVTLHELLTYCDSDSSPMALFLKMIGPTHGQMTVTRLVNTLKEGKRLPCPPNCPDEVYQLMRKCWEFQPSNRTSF

PI3Kδ (p110δ/p85α), sequence (O00329 whole entry): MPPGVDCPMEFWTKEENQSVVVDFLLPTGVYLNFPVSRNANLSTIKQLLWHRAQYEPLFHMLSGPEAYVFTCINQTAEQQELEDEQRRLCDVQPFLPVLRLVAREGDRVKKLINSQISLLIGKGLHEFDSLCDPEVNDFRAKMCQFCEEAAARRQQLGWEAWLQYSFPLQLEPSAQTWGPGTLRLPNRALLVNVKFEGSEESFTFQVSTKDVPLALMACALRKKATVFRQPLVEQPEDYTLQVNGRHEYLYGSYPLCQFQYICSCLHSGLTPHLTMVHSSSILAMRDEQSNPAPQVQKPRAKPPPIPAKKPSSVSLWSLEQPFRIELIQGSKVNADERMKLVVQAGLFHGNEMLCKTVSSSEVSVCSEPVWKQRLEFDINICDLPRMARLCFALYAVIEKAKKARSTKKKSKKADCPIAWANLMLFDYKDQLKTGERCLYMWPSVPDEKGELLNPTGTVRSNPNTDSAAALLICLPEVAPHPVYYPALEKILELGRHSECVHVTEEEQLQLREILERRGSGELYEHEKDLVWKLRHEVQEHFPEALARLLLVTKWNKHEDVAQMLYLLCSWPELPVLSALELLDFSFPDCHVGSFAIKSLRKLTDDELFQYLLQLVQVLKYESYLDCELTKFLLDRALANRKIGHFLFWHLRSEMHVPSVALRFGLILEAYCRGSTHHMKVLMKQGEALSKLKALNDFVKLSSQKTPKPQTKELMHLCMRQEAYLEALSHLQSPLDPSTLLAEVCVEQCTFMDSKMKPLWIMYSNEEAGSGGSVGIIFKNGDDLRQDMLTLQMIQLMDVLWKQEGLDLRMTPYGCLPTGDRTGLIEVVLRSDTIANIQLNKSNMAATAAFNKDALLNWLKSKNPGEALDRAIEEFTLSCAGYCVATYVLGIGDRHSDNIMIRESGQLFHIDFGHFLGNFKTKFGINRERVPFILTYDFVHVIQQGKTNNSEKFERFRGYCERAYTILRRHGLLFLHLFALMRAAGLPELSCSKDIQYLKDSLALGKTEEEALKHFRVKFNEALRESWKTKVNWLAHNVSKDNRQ
PI3Kδ (p110δ/p85α), sequence (P27986 whole entry partner): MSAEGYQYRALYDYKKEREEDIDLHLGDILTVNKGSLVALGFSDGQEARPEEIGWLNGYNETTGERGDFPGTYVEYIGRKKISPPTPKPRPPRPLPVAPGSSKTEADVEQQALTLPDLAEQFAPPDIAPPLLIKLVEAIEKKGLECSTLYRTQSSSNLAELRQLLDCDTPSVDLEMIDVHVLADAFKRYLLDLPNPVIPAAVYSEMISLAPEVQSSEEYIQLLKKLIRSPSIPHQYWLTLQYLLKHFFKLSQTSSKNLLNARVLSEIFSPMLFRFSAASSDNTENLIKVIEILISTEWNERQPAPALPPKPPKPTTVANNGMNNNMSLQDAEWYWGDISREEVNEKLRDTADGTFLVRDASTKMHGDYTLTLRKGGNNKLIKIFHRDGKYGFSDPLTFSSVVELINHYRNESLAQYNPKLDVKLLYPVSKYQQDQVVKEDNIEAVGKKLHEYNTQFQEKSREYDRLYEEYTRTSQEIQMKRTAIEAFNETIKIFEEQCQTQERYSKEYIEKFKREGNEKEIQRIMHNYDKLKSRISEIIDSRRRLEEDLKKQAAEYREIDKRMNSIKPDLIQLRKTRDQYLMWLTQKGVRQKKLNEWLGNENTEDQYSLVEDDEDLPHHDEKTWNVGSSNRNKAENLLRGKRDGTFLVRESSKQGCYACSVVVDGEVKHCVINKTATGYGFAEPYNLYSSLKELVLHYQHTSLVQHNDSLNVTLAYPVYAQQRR
JAK2, sequence (O60674 828-1132): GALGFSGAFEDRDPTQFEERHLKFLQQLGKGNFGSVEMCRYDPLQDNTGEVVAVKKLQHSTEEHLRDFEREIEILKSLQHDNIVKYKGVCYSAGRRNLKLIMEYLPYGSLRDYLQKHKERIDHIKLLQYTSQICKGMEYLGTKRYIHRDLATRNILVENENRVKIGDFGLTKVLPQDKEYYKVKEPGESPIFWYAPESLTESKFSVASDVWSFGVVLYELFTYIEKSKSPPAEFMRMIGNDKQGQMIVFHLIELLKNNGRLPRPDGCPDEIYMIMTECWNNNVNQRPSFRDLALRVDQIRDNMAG

On to `CCOc1c(C(C)n2nc(C)c3c(N)ncnc32)cc(Cl)c(F)c1C1CNC(=O)C1` (single isomer, unassigned) [Example 1A, 4-{3-[1-(4-amino-3-methyl-1H-pyrazolo[3,4-d]pyrimidin-1-yl)ethyl]-5-chloro-2-ethoxy-6-fluorophenyl}pyrrolidin-2-one], for which the IC50 (usually the concentration that gives 50% inhibition) in experiment [1] lay within 50 to 200 nM. Consider `CCOc1c(C(C)n2nc(C)c3c(N)ncnc32)cc(Cl)c(F)c1C1CNC(=O)C1` (single isomer, unassigned) [Example 1D, 4-{3-[1-(4-amino-3-methyl-1H-pyrazolo[3,4-d]pyrimidin-1-yl)ethyl]-5-chloro-2-ethoxy-6-fluorophenyl}pyrrolidin-2-one], for which the IC50 in experiment [1] was 50 to 200 nM. Take `CCOc1c(C(C)n2nc(C)c3c(N)ncnc32)cc(Cl)c(F)c1C1CNC(=O)O1` (single isomer, unassigned) [Example 2A, 5-{3-[1-(4-amino-3-methyl-1H-pyrazolo[3,4-d]pyrimidin-1-yl)ethyl]-5-chloro-2-ethoxy-6-fluorophenyl}-1,3-oxazolidin-2-one]: the IC50 in experiment [1] lay within 50 to 200 nM. Regarding `C[C@@H](O)c1nc2cnc3ccsc3c2n1[C@H]1CC[C@H](CC#N)OC1` [Example 1, ((2R,5S)-5-{2-[(1R)-1-hydroxyethyl]-1H-imidazo[4,5-d]thieno[3,2-b]pyridin-1-yl}tetrahydro-2H-pyran-2-yl)acetonitrile], in experiment [2], the “JAK2/ JAK1” value is given as greater than 10. In experiment [3], this molecule came in with an IC50 of less than 100 nM.

As to `N#CCC(C1CCN(c2cccc(Cl)n2)C1)n1cc(-c2ncnc3[nH]ccc23)cn1` (centres unmarked) [Example 3, 3-[1-(6-chloropyridin-2-yl)pyrrolidin-3-yl]-3-[4-(7H-pyrrolo[2,3-d]pyrimidin-4-yl)-1H-pyrazol-1-yl]propanenitrile], the “JAK2/ JAK1” value in experiment [2] is given as greater than 10. In addition, in experiment [3], the IC50 was less than 10 nM.

`N#CCC(C1CCN(c2nc3cccnc3o2)C1)n1cc(-c2ncnc3[nH]ccc23)cn1` (centres unmarked) [Example 4, 3-(1-[1,3]oxazolo[5,4-b]pyridin-2-ylpyrrolidin-3-yl)-3-[4-(7H-pyrrolo[2,3-d]pyrimidin-4-yl)-1H-pyrazol-1-yl]propanenitrile]: the “JAK2/ JAK1” value in experiment [2] is given as greater than 10. The same molecule yielded a concentration for half-maximal inhibition (IC50) in experiment [3] of less than 10 nM. With `N#CCC(CN1CCN(C(=O)c2ccc(C#N)cc2F)CC1)n1cc(-c2ncnc3[nH]ccc23)cn1` (centres unmarked) [Example 5, 4-[(4-{3-cyano-2-[4-(7H-pyrrolo[2,3-d]pyrimidin-4-yl)-1H-pyrazol-1-yl]propyl}piperazin-1-yl)carbonyl]-3-fluorobenzonitrile], the “JAK2/ JAK1” value in experiment [2] is greater than 10. In experiment [3], this molecule registered an IC50 of less than 10 nM. As to `N#CCC(CN1CCN(C(=O)c2ccc(C#N)cc2F)CC1)n1ccc(-c2ncnc3[nH]ccc23)c1` (centres unmarked) [Example 6, 4-[(4-{3-cyano-2-[3-(7H-pyrrolo[2,3-d]pyrimidin-4-yl)-1H-pyrrol-1-yl]propyl}piperazin-1-yl)carbonyl]-3-fluorobenzonitrile], in experiment [2], the “JAK2/ JAK1” value is listed as greater than 10. The molecule also returned an IC50 in experiment [3] of less than 10 nM. As to `N#CCC1(n2cc(-c3ncnc4[nH]ccc34)cn2)CN(C2CCN(C(=O)c3ccnc(C(F)(F)F)c3F)CC2)C1` [Example 7], in experiment [2], the “JAK2/ JAK1” value was greater than 10. The molecule further registered an IC50 in experiment [3] of less than 10 nM. As to `N#CCC1(n2cc(-c3ncnc4[nH]ccc34)cn2)CN(C2CCN(C(=O)Nc3ccc(F)cc3C(F)(F)F)CC2)C1` [Example 8], the “JAK2/ JAK1” value in experiment [2] is greater than 10. The molecule further gave an IC50 in experiment [3] of less than 10 nM. `N#CCC1(n2cc(-c3ncnc4[nH]ccc34)cn2)CN(C2CCN(C(=O)c3ccnc(C(F)(F)F)n3)CC2)C1` [Example 9, [3-[4-(7H-pyrrolo[2,3-d]pyrimidin-4-yl)-1H-pyrazol-1-yl]-1-(1-{[2-(trifluoromethyl)pyrimidin-4-yl]carbonyl}piperidin-4-yl)azetidin-3-yl]acetonitrile]: the “JAK2/ JAK1” value in experiment [2] is listed as greater than 10. The same molecule returned an IC50 in experiment [3] of less than 10 nM. For `N#CC[C@]1(n2cc(-c3ncnc4[nH]ccc34)cn2)C[C@H](N2CCN(C(=O)c3ccnc(C(F)(F)F)n3)CC2)C1` [Example 10] the same measures were greater than 10 and less than 10 nM. Consider `N#CC[C@]1(n2cc(-c3ncnc4[nH]ccc34)cn2)C[C@H](N2CCC(Oc3cc(CN4CC(O)C4)cc(C(F)(F)F)n3)CC2)C1` [Example 11], for which the “JAK2/ JAK1” value in experiment [2] was greater than 10. The same molecule showed an IC50 in experiment [3] of less than 10 nM. The corresponding values for `N#CC[C@]1(n2cc(-c3ncnc4[nH]ccc34)cn2)C[C@H](N2CCC(Oc3cc(CN4CCC[C@H]4CO)cc(C(F)(F)F)n3)CC2)C1` [Example 12] are greater than 10 and less than 10 nM. With `N#CC[C@]1(n2cc(-c3ncnc4[nH]ccc34)cn2)C[C@H](N2CCC(Oc3cc(CN4CCC[C@@H]4CO)cc(C(F)(F)F)n3)CC2)C1` [Example 13], the “JAK2/ JAK1” value in experiment [2] is greater than 10. The same molecule returned an IC50 in experiment [3] of less than 10 nM. Take `C[C@H](NC(=O)c1cc(F)c(N2CC(CC#N)(n3cc(-c4ncnc5[nH]ccc45)cn3)C2)cc1F)C(F)(F)F` [Example 16, 4-{3-(cyanomethyl)-3-[4-(7H-pyrrolo[2,3-d]pyrimidin-4-yl)-1H-pyrazol-1-yl]azetidin-1-yl}-2,5-difluoro-N-[(1S)-2,2,2-trifluoro-1-methylethyl]benzamide]: the “JAK2/ JAK1” value in experiment [2] is given as greater than 10. Moreover, in experiment [3], the IC50 is less than 10 nM.

Regarding `N#CCC1(n2cc(-c3ncnc4[nH]ccc34)cn2)CN([C@H]2CC[C@@H](Oc3cc(CCO)nc(C(F)(F)F)n3)CC2)C1` [Example 18, {1-(cis-4-{[6-(2-hydroxyethyl)-2-(trifluoromethyl)pyrimidin-4-yl]oxy}cyclohexyl)-3-[4-(7H-pyrrolo[2,3-d]pyrimidin-4-yl)-1H-pyrazol-1-yl]azetidin-3-yl}acetonitrile], the “JAK2/ JAK1” value in experiment [2] was greater than 10. This molecule also came in with an IC50 in experiment [3] of less than 10 nM. In the case of `CCNCc1cc(O[C@H]2CC[C@@H](N3CC(CC#N)(n4cc(-c5ncnc6[nH]ccc56)cn4)C3)CC2)nc(C(F)(F)F)c1` [Example 19, {1-(cis-4-{[4-[(ethylamino)methyl]-6-(trifluoromethyl)pyridin-2-yl]oxy}cyclohexyl)-3-[4-(7H-pyrrolo[2,3-d]pyrimidin-4-yl)-1H-pyrazol-1-yl]azetidin-3-yl}acetonitrile], the “JAK2/ JAK1” value in experiment [2] is listed as greater than 10. Also, the IC50 in experiment [3] was less than 10 nM. Regarding `CC(C)(O)c1cc(O[C@H]2CC[C@@H](N3CC(CC#N)(n4cc(-c5ncnc6[nH]ccc56)cn4)C3)CC2)nc(C(F)(F)F)c1` [Example 20, {1-(cis-4-{[4-(1-hydroxy-1-methylethyl)-6-(trifluoromethyl)pyridin-2-yl]oxy}cyclohexyl)-3-[4-(7H-pyrrolo[2,3-d]pyrimidin-4-yl)-1H-pyrazol-1-yl]azetidin-3-yl}acetonitrile], the “JAK2/ JAK1” value in experiment [2] is reported as greater than 10. For the same molecule, the IC50 in experiment [3] is less than 10 nM. Consider `N#CCC1(n2cc(-c3ncnc4[nH]ccc34)cn2)CN([C@H]2CC[C@@H](Oc3cc(CN4CC[C@@H](O)C4)cc(C(F)(F)F)n3)CC2)C1` [Example 21, {1-(cis-4-{[4-{[(3R)-3-hydroxypyrrolidin-1-yl]methyl}-6-(trifluoromethyl)pyridin-2-yl]oxy}cyclohexyl)-3-[4-(7H-pyrrolo[2,3-d]pyrimidin-4-yl)-1H-pyrazol-1-yl]azetidin-3-yl}acetonitrile], for which the “JAK2/ JAK1” value in experiment [2] is given as greater than 10. Further, the IC50 in experiment [3] was less than 10 nM.

As for `N#CCC1(n2cc(-c3ncnc4[nH]ccc34)cn2)CN([C@H]2CC[C@@H](Oc3cc(CN4CC[C@H](O)C4)cc(C(F)(F)F)n3)CC2)C1` [Example 22, {1-(cis-4-{[4-{[(3S)-3-hydroxypyrrolidin-1-yl]methyl}-6-(trifluoromethyl)pyridin-2-yl]oxy}cyclohexyl)-3-[4-(7H-pyrrolo[2,3-d]pyrimidin-4-yl)-1H-pyrazol-1-yl]azetidin-3-yl}acetonitrile], in experiment [2], the “JAK2/ JAK1” value is listed as greater than 10. For the same molecule, the 50% inhibitory concentration (IC50) in experiment [3] was less than 10 nM. With `C[C@@H](CO)NCc1cc(OC2CCN([C@H]3C[C@](CC#N)(n4cc(-c5ncnc6[nH]ccc56)cn4)C3)CC2)nc(C(F)(F)F)c1` [Example 23], the “JAK2/ JAK1” value in experiment [2] is greater than 10. The molecule further gave an IC50 in experiment [3] of less than 10 nM. `C[C@@H](O)CNCc1cc(OC2CCN([C@H]3C[C@](CC#N)(n4cc(-c5ncnc6[nH]ccc56)cn4)C3)CC2)nc(C(F)(F)F)c1` [Example 24]: the “JAK2/ JAK1” value in experiment [2] is greater than 10. In experiment [3], this molecule registered an IC50 of less than 10 nM. For `C[C@H](O)CNCc1cc(OC2CCN([C@H]3C[C@](CC#N)(n4cc(-c5ncnc6[nH]ccc56)cn4)C3)CC2)nc(C(F)(F)F)c1` [Example 25] the same measures were greater than 10 and less than 10 nM. For `N#CC[C@]1(n2cc(-c3ncnc4[nH]ccc34)cn2)C[C@H](N2CCC(Oc3cc(CCO)cc(C(F)(F)F)n3)CC2)C1` [Example 26], the “JAK2/ JAK1” value in experiment [2] was greater than 10. In experiment [3], this molecule had an IC50 of less than 10 nM.
